Laboratory results as given in patent US20260138978A1, “POSITIVE ALLOSTERIC MODULATORS OF THE MUSCARINIC ACETYLCHOLINE RECEPTOR M1” (Vanderbilt University, priority 2022, published 2026).

What was measured:
human mAChRM1 [1] = target: T1, human mAChRM1 (Homo sapiens, UniProt P11229); assay: mAChR M1 cell-based functional assay (calcium mobilization), agonist activity upon compound addition, Emax relative to acetylcholine maximum; details: for Agonist Activity Human M1 EC50 / EC50: calcium mobilization upon compound addition; for Emax: relative to the maximum for acetylcholine
T1 construct: host or cells: CHO-K1
T1 sequence (P11229 1-460): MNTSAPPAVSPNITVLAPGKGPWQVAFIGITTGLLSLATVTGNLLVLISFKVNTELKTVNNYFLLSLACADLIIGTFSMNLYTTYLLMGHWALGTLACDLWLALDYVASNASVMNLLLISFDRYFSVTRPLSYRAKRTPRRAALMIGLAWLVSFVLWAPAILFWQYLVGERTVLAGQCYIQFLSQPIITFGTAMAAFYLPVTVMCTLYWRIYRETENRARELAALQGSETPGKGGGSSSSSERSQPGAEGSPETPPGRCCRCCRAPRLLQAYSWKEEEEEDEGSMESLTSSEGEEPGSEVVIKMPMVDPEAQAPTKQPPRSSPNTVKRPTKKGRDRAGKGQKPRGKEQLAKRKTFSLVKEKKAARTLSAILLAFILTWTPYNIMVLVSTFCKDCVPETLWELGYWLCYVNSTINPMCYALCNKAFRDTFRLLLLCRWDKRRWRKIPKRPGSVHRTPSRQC
How it was run: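 Emax is given as a percentage of the maximal acetylcholine response, from four-parameter curves of compound-evoked calcium mobilization. Human M1-transfected CHO-K1 cells carried Fluo-4 dye, and compound (11 concentrations, 1:3 steps) was applied at 4 s of a 300 s kinetic fluorescence recording.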

human mAChRM1 [2] = target: T1, human mAChRM1; assay: mAChR M1 cell-based functional assay (calcium mobilization), positive allosteric modulator activity: increase in the EC20 acetylcholine response; details: for Emax: PAM mode; for EC50: read-out: PAM Activity Human M1 EC50
How it was run: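 Potentiation is scored as the rise in an EC20 acetylcholine-evoked calcium signal across 11-point (1:3) compound series, fitted with a four-parameter logistic equation to give EC50 and Emax. Read-out is Fluo-4 fluorescence ratio in hM1-transfected CHO-K1 cells, measured kinetically on FDSS.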

[3] = increase in the EC20 acetylcholine response

Agonist Activity Human M1 EC50 (human mAChRM1 [1])	Emax (human mAChRM1 [2]) [%]	EC50 (human mAChRM1 [2]; [3]) [nM]	EC50 (human mAChRM1 [1]) [nM]	Emax (human mAChRM1 [1]) [%]	PAM Activity Human M1 EC50 (human mAChRM1 [2]; [3])	SMILES
inactive	64	3210				CC(C)(O)c1cccc(-c2cc(F)c(CN3Cc4ncccc4C3=O)c(F)c2)c1 [Compound 43, 6-((3,5-difluoro-3′-(2-hydroxypropan-2-yl)-[1,1′-biphenyl]-4-yl)methyl)-6,7-dihydro-5H-pyrrolo[3,4-b]pyridin-5-one]
inactive	79	1010				CC(C)(O)c1ccc(-c2cc(F)c(CN3Cc4ccncc4C3=O)c(F)c2)cc1 [Compound 141, 2-((3,5-difluoro-4′-(2-hydroxypropan-2-yl)-[1,1′-biphenyl]-4-yl)methyl)-1,2-dihydro-3H-pyrrolo[3,4-c]pyridin-3-one]
	71	278	≥ 10000	23		Cc1cc(-c2ccc(C(C)(C)O)c3nn(C)cc23)ccc1CN1Cc2ncccc2C1=O [Compound 58, 6-(4-(7-(2-hydroxypropan-2-yl)-2-methyl-2H-indazol-4-yl)-2-methylbenzyl)-6,7-dihydro-5H-pyrrolo[3,4-b]pyridin-5-one]
inactive	47	≥ 10000				Cn1cc2c(-c3ncc(CN4Cc5ncccc5C4=O)cn3)ccc(C(C)(C)O)c2n1 [Compound 111, 6-((2-(7-(2-hydroxypropan-2-yl)-2-methyl-2H-indazol-4-yl)pyrimidin-5-yl)methyl)-6,7-dihydro-5H-pyrrolo[3,4-b]pyridin-5-one]
	83	96	5300	68		[2H]C1([2H])c2ncccc2C(=O)N1Cc1c(F)cc(-c2ccc(C(C)(C)O)c3nn(C)cc23)cc1C1CC1 (single isomer, unassigned) [Compound 143, 6-(2-cyclopropyl-6-fluoro-4-(7-(2-hydroxypropan-2-yl)-2-methyl-2H-indazol-4-yl)benzyl)-6,7-dihydro-5H-pyrrolo[3,4-b]pyridin-5-one-7,7-d2]
inactive	52	≥ 10000				Cc1cc(-c2cc(C(C)(C)O)cc3nn[nH]c23)cc(F)c1CN1Cc2ncccc2C1=O [Compound 74, 6-(2-fluoro-4-(5-(2-hydroxypropan-2-yl)-1H-benzo[d][1,2,3]triazol-7-yl)-6-methylbenzyl)-6,7-dihydro-5H-pyrrolo[3,4-b]pyridin-5-one]
inactive	61	≥ 10000				Cn1ncc2c(-c3cc(F)c(CN4Cc5cccc(F)c5C4=O)c(F)c3)ccc(C(C)(C)O)c21 [Compound 157, 2-(2,6-difluoro-4-(7-(2-hydroxypropan-2-yl)-1-methyl-1H-indazol-4-yl)benzyl)-7-fluoroisoindolin-1-one]
inactive	76	2520				Cc1cc(-c2cc(C(C)(C)O)cc3nn(C)cc23)cc(F)c1CN1Cc2ncccc2C1=O [Compound 25, 6-(2-fluoro-4-(6-(2-hydroxypropan-2-yl)-2-methyl-2H-indazol-4-yl)-6-methylbenzyl)-6,7-dihydro-5H-pyrrolo[3,4-b]pyridin-5-one]
inactive	78	2210				CCC(O)(CC)c1ccc(-c2ccc(CN3Cc4ncccc4C3=O)c(F)c2)c2cn(C)nc12 [Compound 70, 6-(2-fluoro-4-(7-(3-hydroxypentan-3-yl)-2-methyl-2H-indazol-4-yl)benzyl)-6,7-dihydro-5H-pyrrolo[3,4-b]pyridin-5-one]
inactive	86	222				Cn1cc2c(-c3cc(F)c(CN4Cc5ncccc5C4=O)c(F)c3)ccc(C3(O)CCC(C#N)CC3)c2n1 (stereo not drawn) [Compound 101, 4-(4-(3,5-difluoro-4-((5-oxo-5,7-dihydro-6H-pyrrolo[3,4-b]pyridin-6-yl)methyl)phenyl)-2-methyl-2H-indazol-7-yl)-4-hydroxycyclohexane-1-carbonitrile]
inactive	36	≥ 10000				Cc1cc(-c2cc(C(C)(C)O)nn2C)ccc1CN1Cc2ncccc2C1=O [Compound 69, 6-(4-(3-(2-hydroxypropan-2-yl)-1-methyl-1H-pyrazol-5-yl)-2-methylbenzyl)-6,7-dihydro-5H-pyrrolo[3,4-b]pyridin-5-one]
	67	281	≥ 10000	17		Cn1cc2c(-c3cc(F)c(CN4Cc5nccnc5C4=O)c(F)c3)ccc(C(C)(C)O)c2n1 [Compound 138, 6-(2,6-Difluoro-4-(7-(2-hydroxypropan-2-yl)-2-methyl-2H-indazol-4-yl)benzyl)-6,7-dihydro-5H-pyrrolo[3,4-b]pyrazin-5-one]
inactive					inactive	Cc1cc(-c2cc(C(C)(C)O)c3cn(C)nc3c2)ccc1CN1Cc2ncccc2C1=O [Compound 22, 6-(4-(4-(2-hydroxypropan-2-yl)-2-methyl-2H-indazol-6-yl)-2-methylbenzyl)-6,7-dihydro-5H-pyrrolo[3,4-b]pyridin-5-one]
inactive	66	3700				CC(C)(O)c1ccc(-c2cc(F)c(CN3Cc4cccnc4C3=O)c(Cl)c2)cc1 [Compound 120, 6-((3-chloro-5-fluoro-4′-(2-hydroxypropan-2-yl)-[1,1′-biphenyl]-4-yl)methyl)-5,6-dihydro-7H-pyrrolo[3,4-b]pyridin-7-one]
inactive	27	≥ 10000				Cn1cc2c(-c3ccc(CN4Cc5ncccc5C4=O)nn3)ccc(C(C)(C)O)c2n1 [Compound 112, 6-((6-(7-(2-hydroxypropan-2-yl)-2-methyl-2H-indazol-4-yl)pyridazin-3-yl)methyl)-6,7-dihydro-5H-pyrrolo[3,4-b]pyridin-5-one]
inactive	75	≥ 10000				Cn1cc2cc(-c3cc(F)c(CN4Cc5cccc(F)c5C4=O)c(Cl)c3)cc(C(C)(C)O)c2n1 [Compound 171, 2-(2-chloro-6-fluoro-4-(7-(2-hydroxypropan-2-yl)-2-methyl-2H-indazol-5-yl)benzyl)-7-fluoroisoindolin-1-one]
	75	202	≥ 10000	19		Cc1cc(-c2ccc(C(C)(C)O)c3nn(C)cc23)cc(F)c1CN1Cc2cccc(F)c2C1=O [Compound 162, 7-fluoro-2-(2-fluoro-4-(7-(2-hydroxypropan-2-yl)-2-methyl-2H-indazol-4-yl)-6-methylbenzyl)isoindolin-1-one]
inactive	87	64				Cn1cc2c(-c3cc(F)c(CN4Cc5cccc(F)c5C4=O)c(F)c3)ccc(C(C)(C)O)c2n1 [Compound 154, 2-(2,6-difluoro-4-(7-(2-hydroxypropan-2-yl)-2-methyl-2H-indazol-4-yl)benzyl)-7-fluoroisoindolin-1-one]
inactive	30	≥ 10000				Cn1nc2cc(C(C)(C)O)ccc2c1-c1cc(F)c(CN2Cc3ncccc3C2=O)c(F)c1 [Compound 51]
inactive	81	1700				Cc1cc(-c2ccc(C(O)(C3CC3)C3CC3)c3nn(C)cc23)cc(F)c1CN1Cc2ncccc2C1=O [Compound 85, 6-(4-(7-(dicyclopropyl(hydroxy)methyl)-2-methyl-2H-indazol-4-yl)-2-fluoro-6-methylbenzyl)-6,7-dihydro-5H-pyrrolo[3,4-b]pyridin-5-one]
inactive	85	155				Cn1cc2c(-c3cc(F)c(CN4Cc5ccccc5C4=O)c(F)c3)ccc(C(C)(C)O)c2n1 [Compound 172, 2-(2,6-difluoro-4-(7-(2-hydroxypropan-2-yl)-2-methyl-2H-indazol-4-yl)benzyl)isoindolin-1-one]
inactive	64	445				Cn1cc2c(-c3ccc(CN4Cc5ncccc5C4=O)c(F)c3F)ccc(C(C)(C)O)c2n1 [Compound 63, 6-(2,3-difluoro-4-(7-(2-hydroxypropan-2-yl)-2-methyl-2H-indazol-4-yl)benzyl)-6,7-dihydro-5H-pyrrolo[3,4-b]pyridin-5-one]
inactive	67	2720				CCC(O)(CC)c1ccc(-c2cc(C)c(CN3Cc4ncccc4C3=O)c(F)c2)c2cn(C)nc12 [Compound 55, 6-(2-fluoro-4-(7-(3-hydroxypentan-3-yl)-2-methyl-2H-indazol-4-yl)-6-methylbenzyl)-6,7-dihydro-5H-pyrrolo[3,4-b]pyridin-5-one]
